# Experimental data reported in patent US10449258B2, “Antibody drug conjugate, intermediate, preparation method, pharmaceutical composition and uses thereof” (XDCEXPLORER (SHANGHAI) CO., LTD., priority 2015, dated 2019).
# Where two headings read alike, the source gives them in different places.
# Experiments:
# [1] = system: Her2 low expression human MCF-7 breast tumor cells; experiment: Cytotoxicity assay (growth inhibition, CellTiter-Glo) on MCF-7
# Method: (§1) Her2-positive human BT474 breast tumor cells (BT474 for short), Her2 low expression human MCF-7 breast tumor cells (MCF-7 for short), and human breast tumor cell strain MCF7-Her2 with stable-transfected Her2 outside MCF-7 (MCF-7-Her2 for short) were used (they were prepared by the methods disclosed in the literatures for preparing recombinant cells: Teemu T. Junttila, et al., Breast. Cancer Res. Treat., 2011, 128, 347 and Jeffrey J. Wallin et al., Clin. Cancer Res., 2012, 18, 3901, the contents of which are incorporated herein by reference in their entireties). The growth inhibition of tumor cells by T-CE-040 and T-CE-063 antibody drug conjugates were evaluated. BT474, MCF7-Her2 and MCF-7 were digested with 0.25% (v/v) trypsin and the cells were stripped and then suspended in 100 μL complete medium. 2,000 cells were inoculated in a 96-well plate and cultured, grew adherently overnight at 37° C., then 100 μL T-CE-040 and T-CE-063 antibody drug conjugates with different concentration gradients and the complete medium were added. After 120 hours, relative cell proliferation analysis was performed by adding 50 μL CellTiter-Glo® […] Cell Activation Reagent (CellTiter-GloB Luminescent, Promega).
# [2] = system: human breast tumor cell strain MCF7-Her2 with stable-transfected Her2; experiment: Cytotoxicity assay (growth inhibition, CellTiter-Glo) on MCF7-Her2
# Method: as §1
# [3] = system: Her2-positive human BT474 breast tumor cells; experiment: Cytotoxicity assay (growth inhibition, CellTiter-Glo) on BT474
# Method: as §1
# [4] = Homo sapiens, MCF7, 120 h, read-out: Cytotoxicity assay IC50 MCF7, MCF-7 cells, 120 hours, CellTiter-Glo
# [5] = Homo sapiens, 120 h, read-out: Cytotoxicity assay IC50 MCF-Her2, MCF7-Her2 cells, 120 hours, CellTiter-Glo
# [6] = Homo sapiens, BT-474, 120 h, read-out: Cytotoxicity assay IC50 BT474, BT474 cells, 120 hours, CellTiter-Glo
# [7] = read-out: Cytotoxicity assay IC50 BT474, BT474 cells, 120 hours, CellTiter-Glo
compound,measurement,setting,value
COc1cc2cc(c1Cl)N(C)C(=O)CC(OC(=O)[C@H](C)N(C)C(CCSSCCCC(=O)ON1C(=O)CCC1=O)C(F)(F)F)[C@]1(C)O[C@H]1[C@H](C)[C@@H]1C[C@@](O)(NC(=O)O1)[C@H](OC)/C=C/C=C(\C)C2 (stereo partly drawn) [CE-041],IC50,[1]; [4],185 nM
same,IC50,[2]; [5],126 nM
same,IC50,[3]; [6],68.3 nM
COc1cc2cc(c1Cl)N(C)C(=O)C[C@H](OC(=O)[C@H](C)OCCCSC1CC(=O)N(C[C@H]3CC[C@H](C(=O)ON4C(=O)CCC4=O)CC3)C1=O)[C@]1(C)O[C@H]1[C@H](C)C1C[C@@](O)(NC(=O)O1)[C@H](OC)/C=C/C=C(\C)C2 (stereo partly drawn) [CE-035],IC50,"[1]; read-out: Cytotoxicity assay IC50 MCF7, MCF-7 cells, 120 hours, CellTiter-Glo",25.8 nM
same,IC50,"[2]; read-out: Cytotoxicity assay IC50 MCF-Her2, MCF7-Her2 cells, 120 hours, CellTiter-Glo",15.1 nM
same,IC50,[3]; [7],26.8 nM
COc1cc2cc(c1Cl)N(C)C(=O)C[C@H](OC(=O)COCCCSC1CC(=O)N(C[C@H]3CC[C@H](C(=O)ON4C(=O)CCC4=O)CC3)C1=O)[C@]1(C)O[C@H]1[C@H](C)C1C[C@@](O)(NC(=O)O1)[C@H](OC)/C=C/C=C(\C)C2 (stereo partly drawn) [CE-048],IC50,[1]; [4],171 nM
same,IC50,[2]; [5],72.1 nM
same,IC50,[3]; [6],266 nM
COc1cc2cc(c1Cl)N(C)C(=O)C[C@H](OC(=O)[C@H](C)OCCOCCOCCNC(=O)CBr)[C@]1(C)O[C@H]1[C@H](C)C1C[C@@](O)(NC(=O)O1)[C@H](OC)/C=C/C=C(\C)C2 [CE-050],IC50,[1]; [4],14.4 nM
same,IC50,[2]; [5],7 nM
same,IC50,[3]; [6],26.1 nM
COc1cc2cc(c1Cl)N(C)C(=O)C[C@H](OC(=O)[C@H](C)OCCOCCOCCN1C(=O)C=CC1=O)[C@]1(C)O[C@H]1[C@H](C)C1C[C@@](O)(NC(=O)O1)[C@H](OC)/C=C/C=C(\C)C2 [CE-047],IC50,[1]; [4],327 nM
same,IC50,[2]; [5],134 nM
same,IC50,[3]; [6],325 nM
COc1cc2cc(c1Cl)N(C)C(=O)C[C@H](OC(=O)[C@H](C)OCCSSC)[C@]1(C)O[C@H]1[C@H](C)[C@@H]1C[C@@](O)(NC(=O)O1)[C@H](OC)/C=C/C=C(\C)C2 [CE-026],IC50,[1]; [4],41 nM
same,IC50,[2]; [5],17 nM
same,IC50,[3]; [6],14 nM
COc1cc2cc(c1Cl)N(C)C(=O)C[C@H](OC(=O)[C@H](C)N(C)C(CCSC1CC(=O)N(C[C@H]3CC[C@H](C(=O)ON4C(=O)CCC4=O)CC3)C1=O)C(F)(F)F)[C@]1(C)O[C@H]1[C@H](C)C1C[C@@](O)(NC(=O)O1)[C@H](OC)/C=C/C=C(\C)C2 (stereo partly drawn) [CE-038],IC50,[1]; [4],873 nM
same,IC50,[2]; [5],425 nM
same,IC50,[3]; [6],163 nM
COc1cc2cc(c1Cl)N(C)C(=O)C[C@H](OC(=O)[C@H](C)N(C)C(=O)CCC(C)(C#N)SSC)[C@]1(C)O[C@H]1[C@H](C)[C@@H]1C[C@@](O)(NC(=O)O1)[C@H](OC)/C=C/C=C(\C)C2 (stereo partly drawn) [CE-019],IC50,[1]; [4],150 nM
same,IC50,[2]; [5],57 nM
same,IC50,[3]; [6],64 nM
COc1cc2cc(c1Cl)N(C)C(=O)C[C@H](OC(=O)[C@H](C)OCCOCCSC1CC(=O)N(CCC(=O)NCCOCCOCCC(=O)ON3C(=O)CCC3=O)C1=O)[C@]1(C)O[C@H]1[C@H](C)C1C[C@@](O)(NC(=O)O1)[C@H](OC)/C=C/C=C(\C)C2 (stereo partly drawn) [XDCE-M-001],IC50,[1]; [4],330 nM
same,IC50,[2]; [5],182 nM
same,IC50,[3]; [6],456 nM
COCC(C)(CCC(=O)N(C)[C@@H](C)C(=O)O[C@H]1CC(=O)N(C)c2cc(cc(OC)c2Cl)C/C(C)=C/C=C/[C@@H](OC)[C@@]2(O)C[C@H](OC(=O)N2)[C@@H](C)[C@@H]2O[C@@]12C)SSC (stereo partly drawn) [CE-013],IC50,[1]; [4],4.3 nM
same,IC50,[2]; [5],5.9 nM
same,IC50,[3]; [7],21 nM
COc1cc2cc(c1Cl)N(C)C(=O)C[C@H](OC(=O)[C@H](C)OCCOCCSC1CC(=O)N(CCC(=O)NCCOCCOCCOCCC(=O)ON3C(=O)CCC3=O)C1=O)[C@]1(C)O[C@H]1[C@H](C)C1C[C@@](O)(NC(=O)O1)[C@H](OC)/C=C/C=C(\C)C2 (stereo partly drawn) [XDCE-M-002],IC50,[1]; [4],51.5 nM
same,IC50,[2]; [5],64.3 nM
same,IC50,[3]; [6],41.6 nM
COc1cc2cc(c1Cl)N(C)C(=O)C[C@H](OC(=O)[C@H](C)OCCOCCSC1CC(=O)N(C[C@H]3CC[C@H](C(=O)ON4C(=O)CCC4=O)CC3)C1=O)[C@]1(C)O[C@H]1[C@H](C)C1C[C@@](O)(NC(=O)O1)[C@H](OC)/C=C/C=C(\C)C2 (stereo partly drawn) [CE-034],IC50,[1]; [4],14.1 nM
same,IC50,[2]; [5],14.2 nM
same,IC50,[3]; [6],19.9 nM
"COc1cc2cc(c1Cl)N(C)C(=O)C[C@H](OC(=O)[C@@H](C)N(C)C(=O)CCSSC)C1(C)O[C@H]1[C@H](C)C1C[C@@](O)(NC(=O)O1)[C@H](OC)/C=C/C=C(\C)C2 (stereo partly drawn) [DM1-SMe, reference compound]",IC50,"[1]; Homo sapiens, MCF7, 120 h, read-out: Cytotoxicity assay IC50 MCF7",9.5 nM
same,IC50,"[2]; Homo sapiens, 120 h, read-out: Cytotoxicity assay IC50 MCF-Her2",7.3 nM
same,IC50,"[3]; Homo sapiens, BT-474, 120 h, read-out: Cytotoxicity assay IC50 BT474",9.3 nM
